In ChEMBL document CHEMBL4385653, “Design, synthesis, biological evaluation of benzoyl amide derivatives containing nitrogen heterocyclic ring as potential VEGFR-2 inhibitors” (Bioorg Med Chem, 2019) one finds Activity and IC50 data, which are given here for 1 molecule.

SMILES strings stand for the structures.

In assay [1] the test system is MCF7. The assay is described as follows: Suppression of mitochondrial membrane potential in human MCF7 cells assessed as green fluorescent cells level at 2 uM incubated for 12 hrs by rhodamine-123 dye based flow cytometry analysis (reference value: 0.29%). The assay is classed as functional. Background: A flow cytometer gives signals particle by particle.
For assay [2], the system named is MCF7. The assay is described as follows: Suppression of mitochondrial membrane potential in human MCF7 cells assessed as red fluorescent cells level at 2 uM incubated for 12 hrs by rhodamine-123 dye based flow cytometry analysis (reference value: 99.71%). The assay is classed as functional.
Assay [3] relates to MCF7. The assay is described as follows: Induction of apoptosis in human MCF7 cells assessed as late necrotic cells level at 4 uM incubated for 12 hrs by Annexin V-FITC/PI double staining based flow cytometry analysis (reference value: 6.88%). The assay is classed as functional.
In assay [4] the test system is MCF7. The assay is described as follows: Induction of apoptosis in human MCF7 cells assessed as late apoptotic cells level at 4 uM incubated for 24 hrs by Annexin V-FITC/PI double staining based flow cytometry analysis (reference value: 10.1%). The assay is classed as functional.
Assay [5] can be described thus: Inhibition of PDGFR (unknown origin) incubated for 30 mins by enzyme immunoassay. Also on record: species or system Homo sapiens.
In assay [6] the target is Epidermal growth factor receptor (Homo sapiens, UniProt P00533). The assay is described as follows: Inhibition of EGFR (unknown origin) incubated for 30 mins by enzyme immunoassay.
Assay [7] relates to MCF7. The assay is described as follows: Induction of apoptosis in human MCF7 cells assessed as late necrotic cells level at 4 uM incubated for 24 hrs by Annexin V-FITC/PI double staining based flow cytometry analysis (reference value: 6.88%). The assay is classed as functional.
Assay [8] deals with Vascular endothelial growth factor receptor 2 (Homo sapiens, UniProt P35968). The assay is described as follows: Inhibition of VEGFR2 (unknown origin) incubated for 30 mins by enzyme immunoassay.
Assay [9] deals with MCF7. The assay is described as follows: Induction of apoptosis in human MCF7 cells assessed as viable cells level at 2 uM incubated for 24 hrs by Annexin V-FITC/PI double staining based flow cytometry analysis (reference value: 82%). It is filed as functional.
Assay [10] relates to MCF7. The assay is described as follows: Induction of apoptosis in human MCF7 cells assessed as late necrotic cells level at 4 uM incubated for 24 hrs by Annexin V-FITC/PI double staining based flow cytometry analysis (reference value: 1.49%). It is filed as functional.

Epidermal growth factor receptor, sequence (P00533 whole entry): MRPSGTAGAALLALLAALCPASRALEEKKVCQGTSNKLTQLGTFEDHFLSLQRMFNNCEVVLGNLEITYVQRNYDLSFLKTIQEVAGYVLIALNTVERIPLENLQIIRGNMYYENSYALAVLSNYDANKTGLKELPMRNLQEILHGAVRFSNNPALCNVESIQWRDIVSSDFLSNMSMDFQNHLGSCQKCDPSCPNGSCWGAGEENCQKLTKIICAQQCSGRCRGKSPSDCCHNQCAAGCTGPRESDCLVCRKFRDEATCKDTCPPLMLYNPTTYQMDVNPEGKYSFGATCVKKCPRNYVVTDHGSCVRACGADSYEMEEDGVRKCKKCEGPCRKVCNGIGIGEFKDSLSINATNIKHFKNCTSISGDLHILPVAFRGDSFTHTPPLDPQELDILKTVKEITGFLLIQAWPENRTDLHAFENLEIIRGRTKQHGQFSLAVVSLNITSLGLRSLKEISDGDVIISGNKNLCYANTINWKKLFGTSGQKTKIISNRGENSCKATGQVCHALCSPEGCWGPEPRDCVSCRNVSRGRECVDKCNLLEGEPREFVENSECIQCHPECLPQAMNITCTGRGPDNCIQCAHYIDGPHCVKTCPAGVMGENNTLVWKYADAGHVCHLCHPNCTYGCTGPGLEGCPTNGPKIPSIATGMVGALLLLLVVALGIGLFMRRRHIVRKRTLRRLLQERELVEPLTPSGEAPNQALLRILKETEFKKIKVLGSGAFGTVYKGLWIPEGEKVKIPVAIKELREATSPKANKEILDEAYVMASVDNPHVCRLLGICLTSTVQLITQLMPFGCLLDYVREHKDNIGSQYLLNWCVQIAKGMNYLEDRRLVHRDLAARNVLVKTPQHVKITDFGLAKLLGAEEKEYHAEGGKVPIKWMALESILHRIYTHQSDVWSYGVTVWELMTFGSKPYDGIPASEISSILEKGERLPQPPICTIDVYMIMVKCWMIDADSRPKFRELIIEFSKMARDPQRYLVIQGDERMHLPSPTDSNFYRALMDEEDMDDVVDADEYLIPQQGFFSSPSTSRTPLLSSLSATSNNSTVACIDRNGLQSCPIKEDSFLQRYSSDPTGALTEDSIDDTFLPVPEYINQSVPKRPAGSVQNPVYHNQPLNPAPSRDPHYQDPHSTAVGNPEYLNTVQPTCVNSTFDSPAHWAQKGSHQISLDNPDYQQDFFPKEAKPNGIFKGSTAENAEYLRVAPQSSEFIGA
Vascular endothelial growth factor receptor 2, sequence (P35968 whole entry): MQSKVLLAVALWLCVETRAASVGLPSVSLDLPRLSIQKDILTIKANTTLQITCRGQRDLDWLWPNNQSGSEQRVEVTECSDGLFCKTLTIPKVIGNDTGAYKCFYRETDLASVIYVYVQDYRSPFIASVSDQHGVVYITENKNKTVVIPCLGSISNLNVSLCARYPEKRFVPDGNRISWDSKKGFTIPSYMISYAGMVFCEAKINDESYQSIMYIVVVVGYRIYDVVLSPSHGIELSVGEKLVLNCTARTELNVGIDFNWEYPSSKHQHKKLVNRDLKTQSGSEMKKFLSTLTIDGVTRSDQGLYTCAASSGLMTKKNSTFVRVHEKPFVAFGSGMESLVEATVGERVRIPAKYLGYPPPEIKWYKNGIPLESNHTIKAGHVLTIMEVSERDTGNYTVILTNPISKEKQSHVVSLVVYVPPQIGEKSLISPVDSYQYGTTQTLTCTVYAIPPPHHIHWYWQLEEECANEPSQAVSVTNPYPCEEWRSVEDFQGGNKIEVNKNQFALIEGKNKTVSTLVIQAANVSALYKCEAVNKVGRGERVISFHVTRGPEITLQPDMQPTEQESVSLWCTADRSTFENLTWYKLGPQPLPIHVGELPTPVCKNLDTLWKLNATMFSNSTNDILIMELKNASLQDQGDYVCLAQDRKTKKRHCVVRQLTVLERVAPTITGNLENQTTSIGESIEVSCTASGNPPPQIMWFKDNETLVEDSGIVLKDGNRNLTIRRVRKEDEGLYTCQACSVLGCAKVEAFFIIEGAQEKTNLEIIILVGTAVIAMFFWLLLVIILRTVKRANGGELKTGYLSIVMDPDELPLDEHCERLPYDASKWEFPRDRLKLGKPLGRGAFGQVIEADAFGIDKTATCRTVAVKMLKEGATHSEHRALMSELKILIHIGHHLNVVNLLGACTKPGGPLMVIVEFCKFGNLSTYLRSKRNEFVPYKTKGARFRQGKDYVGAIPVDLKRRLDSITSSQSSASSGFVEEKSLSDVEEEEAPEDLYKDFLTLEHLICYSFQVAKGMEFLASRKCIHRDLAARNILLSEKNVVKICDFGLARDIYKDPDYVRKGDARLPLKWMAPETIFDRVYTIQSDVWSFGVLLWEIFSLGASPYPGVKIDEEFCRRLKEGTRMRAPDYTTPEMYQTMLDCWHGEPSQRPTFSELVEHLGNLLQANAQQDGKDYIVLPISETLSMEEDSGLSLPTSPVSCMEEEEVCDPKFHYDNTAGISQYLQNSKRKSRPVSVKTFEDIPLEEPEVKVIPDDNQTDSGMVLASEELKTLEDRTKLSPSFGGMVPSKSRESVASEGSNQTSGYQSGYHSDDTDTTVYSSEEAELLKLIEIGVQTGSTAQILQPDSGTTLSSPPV

Usually IC50 stands for the concentration at which inhibition is half-maximal. Turning to `Cc1ccc(-n2cc(NC(=O)c3cccc(NS(=O)(=O)c4ccc(Cl)cc4)c3)cn2)cc1`, the Activity in [1] worked out at 12.4%; in [2] it was 87.6%; in [3], 0.349%; in assay [4] it was 21.4%; in assay [7] it was 1.14%; in assay [9], 70.3%. In addition, in assay [10], the Activity is recorded as 2.62%. Also, the concentration for half-maximal inhibition (IC50) was determined as 14.1 µM in assay [5], 8.77 µM in [6] and 0.34 µM in [8].
